Measurements from patent US20240174672A1, “Spirocycle Containing Pyridone Compounds” (Protego Biopharma, Inc., priority 2022, published 2024).

Tested on: immunoglobulin light chain protein WIL-FL T46L
Assay: Differential Scanning Fluorimetry (thermal shift) assay
Assay type: binding
Conditions: recombinant amyloidogenic full length light chain WIL-FL T46L; protein and compound incubated at RT for 30 min before dye
Description: Differential Scanning Fluorimetry Assay
The stabilization effects the compounds have on the immunoglobulin light chain protein was quantitively measured using a thermal shift assay. Recombinant amyloidogenic full length light chain protein WIL-FL T46L was produced in E. coli, purified, and used in the assay. The Thermal Shift Protein Stability Kit from Biotium was used and the assay was done in 96-well Plates following the manufacturer's instructions. The protein and compounds were incubated at RT for 30 min before adding the dye and subjected to the thermal shift assay. The thermal stability (Tm) of each sample was then determined using standard curve fitting methods and compared to vehicle. Data are expressed as temperature shift: [Tm]compound−[Tm]vehicle.
The compounds provided herein induce shifts in the ranges below: • 0-0.5° C.═* • >0.5-1° C.═** • >1-1.5° C.═*** • >1.5-2.5° C.═**** • >2.5° C.═*****

Structure (SMILES) | DSF temperature shift: [Tm]compound−[Tm]vehicle
Cc1cc(N2CC[C@](C)(c3ccccc3)C2)cc(=O)n1CCN1CC2(CCN(c3nccn4ccnc34)CC2)NC1=O [Compound 12] | *** (>1-1.5° C.═***)
CC[C@]1(c2ccccc2)CCN(c2cc(C)n(CCN3CC4(CCN(c5cccc(C(=O)O)n5)CC4)NC3=O)c(=O)c2)C1 [Compound 20] | **** (>1.5-2.5° C.═****)
Cc1nc(N2CC[C@](C)(c3ccccc3)C2)cc(=O)n1CCN1CC2(CCN(c3nccn4ccnc34)CC2)NC1=O [Compound 24] | *** (>1-1.5° C.═***)
Cc1cc(N2CCC(C)(c3ccccc3)C2)cc(=O)n1CCN1C(=O)NC2(CCN(c3ncccn3)CC2)C1=O (stereo not shown) [Compound 30] | **** (>1.5-2.5° C.═****)
Cc1cc(N2CC[C@@](C)(c3ccccc3)C2)cc(=O)n1CCCN1C(=O)NC2(CCN(c3nccn4ccnc34)CC2)C1=O [Compound 27] | **** (>1.5-2.5° C.═****)
CC[C@]1(c2ccccc2)CCN(c2cc(C)n(CCN3CC4(CCN(c5nccn6cnnc56)CC4)NC3=O)c(=O)c2)C1 [Compound 22] | *** (>1-1.5° C.═***)
CC[C@@]1(c2ccccc2)CCN(c2cc(C)n(CCN3CC4(CCN(c5ccc6nncn6c5)CC4)NC3=O)c(=O)c2)C1 [Compound 16] | **** (>1.5-2.5° C.═****)
Cc1cc(N2CCC(C)(c3ccccc3)C2)cc(=O)n1CCN1CC2(CCN(c3ncccn3)C2)NC1=O (stereo not shown) [Compound 11, 3-(2-(6-methyl-4-(3-methyl-3-phenylpyrrolidin-1-yl)-2-oxopyridin-1(2H)-yl)ethyl)-7-(pyrimidin-2-yl)-1,3,7-triazaspiro[4.4]nonan-2-one] | *** (>1-1.5° C.═***)
CC[C@]1(c2ccccc2)CCN(c2cc(C)n(CCN3CC4(CCN(c5ccc(C(=O)O)nc5)CC4)NC3=O)c(=O)c2)C1 [Compound 19] | ** (>0.5-1° C.═**)
Cc1cc(N2CC[C@](C)(c3ccccc3)C2)cc(=O)n1CCCN1C(=O)NC2(CCN(c3nccn4ccnc34)CC2)C1=O [Compound 35] | *** (>1-1.5° C.═***)
CCOC(=O)c1ccc(N2CCC3(CC2)CN(CCn2c(C)cc(N4CC[C@](CC)(c5ccccc5)C4)cc2=O)C(=O)N3)cn1 [Compound 14] | ***** (>2.5° C.═*****)
Cc1cc(N2CCC(C)(c3ccccc3)C2)cc(=O)n1CCCN1C(=O)NC2(CCN(c3nccn4ccnc34)CC2)C1=O (stereo not shown) [Compound 29] | **** (>1.5-2.5° C.═****)
Cc1cc(N2CCC(C)(c3ccccc3)C2=O)cc(=O)n1CCN1C(=O)NC2(CCN(c3ncccn3)C2)C1=O (stereo not shown) [Compound 34, 3-(2-(6-methyl-4-(3-methyl-2-oxo-3-phenylpyrrolidin-1-yl)-2-oxopyridin-1(2H)-yl)ethyl)-7-(pyrimidin-2-yl)-1,3,7-triazaspiro[4.4]nonane-2,4-dione] | * (0-0.5° C.═*)
Cc1cc(O[C@H](C)c2ccccc2)cc(=O)n1CCN1C(=O)NC2(CCN(c3nccn4ccnc34)CC2)C1=O [Compound 32, (R)-8-(imidazo[1,2-a]pyrazin-8-yl)-3-(2-(6-methyl-2-oxo-4-(1-phenylethoxy)pyridin-1(2H)-yl)ethyl)-1,3,8-triazaspiro[4.5]decane-2,4-dione] | ** (>0.5-1° C.═**)
CC[C@]1(c2ccccc2)CCN(c2cc(C)n(CCN3CC4(CCN(c5ccc(C(=O)O)nn5)CC4)NC3=O)c(=O)c2)C1 [Compound 17] | ***** (>2.5° C.═*****)
CC[C@]1(c2ccccc2)CCN(c2cc(C)n(CCN3CC4(CCN(c5cccc(C(=O)OC)n5)CC4)NC3=O)c(=O)c2)C1 [Compound 21] | **** (>1.5-2.5° C.═****)
CC[C@@]1(c2ccccc2)CCN(c2cc(C)n(CCN3CC4(CCN(c5cn6ccnc6cn5)CC4)NC3=O)c(=O)c2)C1 [Compound 15] | **** (>1.5-2.5° C.═****)
Cc1cc(N2CC[C@@](C)(c3ccccc3)C2)cc(=O)n1CCN1CC2(CCN(c3ncnc4[nH]ncc34)CC2)NC1=O [Compound 9] | **** (>1.5-2.5° C.═****)
Cc1cc(N2CC[C@@](C)(c3ccccc3)C2)cc(=O)n1CCCN1CC2(CCN(c3nccn4ccnc34)CC2)NC1=O [Compound 10] | **** (>1.5-2.5° C.═****)
CC[C@@]1(c2ccccc2)CCN(c2cc(C)n(CCN3CC4(CCN(c5nccn6cnnc56)CC4)NC3=O)c(=O)c2)C1 [Compound 1, (S)-8-([1,2,4]triazolo[4,3-a]pyrazin-8-yl)-3-(2-(4-(3-ethyl-3-phenylpyrrolidin-1-yl)-6-methyl-2-oxopyridin-1(2H)-yl)ethyl)-1,3,8-triazaspiro[4.5]decan-2-one] | ***** (>2.5° C.═*****)
Cc1cc(N2CCC(C)(c3ccccc3)C2)cc(=O)n1CCN1C(=O)NC2(CCN(c3ncccn3)C2)C1=O (stereo not shown) [Compound 33] | *** (>1-1.5° C.═***)
Cc1cc(N2CC[C@@](C)(c3ccccc3)C2)cc(=O)n1CCCN1CC2(CCN(c3nccn4ccnc34)CC2)NC1=O [Compound 13] | ** (>0.5-1° C.═**)
Cc1cc(N2CCC(C)(c3ccccc3)C2)cc(=O)n1CCCN1C(=O)NC2(CCN(c3ncccn3)CC2)C1=O (stereo not shown) [Compound 28, 3-(3-(6-methyl-4-(3-methyl-3-phenylpyrrolidin-1-yl)-2-oxopyridin-1(2H)-yl)propyl)-8-(pyrimidin-2-yl)-1,3,8-triazaspiro[4.5]decane-2,4-dione] | **** (>1.5-2.5° C.═****)
Cc1cc(N2CC[C@@](C)(c3ccccc3)C2)cc(=O)n1CCN1C(=O)NC2(CCN(c3nccn4cncc34)CC2)C1=O [Compound 31] | *** (>1-1.5° C.═***)
CC[C@]1(c2ccccc2)CCN(c2cc(C)n(CCN3CC4(CCN(c5ccc(C(=O)OC)nn5)CC4)NC3=O)c(=O)c2)C1 [Compound 18] | ***** (>2.5° C.═*****)
